Source: patent publication US20250120988A1, “SMALL MOLECULE COMPOUND FOR TREATING ISCHEMIC STROKE, ITS PREPARATION METHOD, AND APPLICATION” (SHANGHAI SIXTH PEOPLE'S HOSPITAL, priority 2023, published 2025)

Columns and labels:
[1] = system: MCAO model; test: MCAO cerebral ischemia model, cerebral infarction volume (TTC staining); format: in vivo, mice; settings: 30 mg/kg intraperitoneal; MCAO 30 minutes, 24 hours after ischemia
Procedure: Figure a illustrates the TTC staining results of brain slices obtained from animals sacrificed 24 hours after different drug treatments following MCAO ischemia for 30 minutes. The dark areas represent normal brain tissue, while the white areas represent infarcted brain tissue. CGS19755 was administered at a concentration of 1 mg/kg (intraperitoneal injection), PcTX-1 was administered at a concentration of 100 ng/kg (ASIC1a blocker, intranasal drip), LK-2 was administered at concentrations of 10 mg/kg or 30 mg/kg (intraperitoneal injection), and Saline was used as the control group. […] The specific steps are as follows: a transient focal ischemic model was formed by occluding the middle cerebral artery for 30 minutes in wild-type or ASIC1a gene knockout mice. The animals were anesthetized using the animal anesthesia machine (RWD). During the induction of anesthesia, the animals are placed in a transparent chamber (15×25×30 cm) containing 2% isoflurane. During the MCAO procedure, the animals are worn a mask delivering 1% isoflurane. Complete occlusion of the middle cerebral artery was confirmed using continuous laser Doppler blood flow measurement (Moor, FLPI-2). Animals with less than 50% reduction in blood flow during MCAO were excluded. […] In this test, mice were placed on the rotating rod and the time to fall was recorded. […]

[2] = system: primary cortical neurons; test: Calcein-PI cell death staining of primary neurons under oxygen-glucose deprivation (OGD); format: cell-based, mice; settings: 10 μM; primary cultured neurons; OGD 1 hour, pH 7.0
Procedure: (§1) Figure a illustrates cortical neurons staining from wild-type (ASIC1a+/+) and gene-deficient (ASIC1a−/−) mice primary cultures in the calcein-PI staining experiment. Blue green represents viable cells, and red represents dead cell nuclei. 10 μM CGS19755 and 10 μM LK-2 were added respectively in the cell culture medium under pH 7.0 conditions with OGD to be treated for 1 hour. Figure c illustrates, after being treated in the same experimental groups as Figure a, the analysis of each group of LDH of relative release levels. Figure d illustrates PI staining of ASIC1a-transfected CHO cells after 1 hour of treatment with pH 7.0 and 500 μM glutamate (Glu). […]
Taking into consideration that in addition to ASIC1a, neurons also express multiple membrane proteins that can be activated and lead to cell death during OGD, in order to more accurately verify that cell death is caused by glutamate activation of ASIC1a and that LK-2 indeed competitively antagonizes the glutamate so as to reduce cell death, we conducted the following experiment: CHO cells transfected with ASIC1a-GFP were divided into a control group (500 μM glutamate) and a drug intervention group (500 μM glutamate+10 μM LK-2). […] Live and dead cell nuclei were determined by observing under a 40× objective using excitation wavelengths of 488 nm and 546 nm. The number of stained cell nuclei was counted using Image-J software.

[3] = system: primary cortical neurons; test: LDH release from cultured neurons after OGD; format: cell-based, mice; settings: 10 μM, OGD 1 hour, pH 7.0
Procedure: as §1, with “(Glu). Green represents green fluorescent protein (GFP), indicating ASIC1a-expressing CHO cells (GFP+), and red represents dead cell nuclei. The concentration of LK-2 was 10 μM. GFP-indicates ASIC1a-untransfected cells.” for “(Glu).”
The LDH assay kit (Biyuntian) was used to measure the release of LDH from cultured neurons after 1 hour of oxygen-glucose deprivation (OGD). […] The absorbance of the target was measured at 490 nm wavelength using a spectrophotometer (Thermo Scientific), while the background absorbance was measured at 620 nm wavelength. […]

## O=C(O)C1CN(C(c2ccccc2)P(=O)(O)O)CCN1 (stereo not drawn) [LK-2]
[1]
  reduction of volume of cerebral infarction: 52.8%
[2]
  reduction of cell death rate: 87%
[3]
  reduction of lactate dehydrogenase release: 50%
